System: Adriamycin resistant strain 2780 AD cells of human ovarian cancer A2780 cells
Assay: Potentiating effect on incorporation of 3H-vincristine into adriamycin-resistant cancer cells
Format: cell-based
Settings: 20 nM 3H-vincristine; for activity at 1 µg/mL / activity at 10 µg/mL: Homo sapiens, 2780AD, 2 h, control = 100, read-out: 3H-vincristine accumulation; for activity at 10 µg/mL: compound 10 μg/ml
Protocol: Potentiating Effect of the Compounds on Incorporation of Anticancer Drugs into Drug-resistant Cancer Cells
Adriamycin resistant strain 2780 AD cells of human ovarian cancer A2780 cells (A. M. Rogan et al., Science 224, 994-996, 1984) were suspended at a concentration of 1×10^6 /ml in RPMI-1640 medium supplemented with 5% fetal calf serum, and 1 ml of the cancer cell suspension was dispensed into each well of a multi-well culture plate (24 wells, […] in diameter) and then incubated at 37° C. in an atmosphere of 5% CO2. After 24 hours incubation, the medium in each well was replaced by 0.5 ml of RPMI-1640 medium supplemented containing 20 nM ^3 H-vincristine (1×10^4 dpm/pmol), 5% fetal calf serum and 10 mM Hepes buffer. Five microliters of a solution of the compound to be tested, which had been dissolved in DMSO and diluted with […] (at a concentration of 1.0 microgram/ml or 10.0 micrograms/ml), was added to each well and the incubation was continued at 37° C. in 5% CO2 for 2 hours. The resultant cells were washed in cold saline-phosphate buffer. In each well was added 0.5 ml of 0.2N NaOH, and the resulting cell suspension in each well was independently transferred into a vial and then heated in a water bath at 56° C. for 30-60 minutes to dissolve the cells. After adding 4 ml of acid aquazole 2, the amount of ^3 H-vincristine incorporated into the cells was determined by a fluid scintillation counter.

Compound: OC(COc1cccc2ncccc12)CN1CCC(C(c2ccccc2)c2ccccc2)CC1 (stereo not shown) [Example 14, 5-[3-(4-(Diphenylmethyl)piperidine-1-yl)-2-hydroxypropoxy]quinoline]
- activity at 1 µg/mL (compound 1 μg/ml): 119%
- activity at 10 µg/mL: 871%

Compound: OC(COc1cccc2nc(Cl)ccc12)CN1CCC(C(O)(c2ccccc2)c2ccccc2)CC1 (stereo not shown) [Example 19, 5-[3-(4-(Diphenyl-hydroxymethyl)piperidine-1-yl)-2-hydroxypropoxy]-2-chloroquinoline]
- activity at 1 µg/mL (compound 1 μg/ml): 374%
- activity at 10 µg/mL: 524%

Compound: Cc1ccc2ncccc2c1OCC(O)CN1CCN(C(c2ccccc2)c2ccccc2)CC1 (stereo not shown) [Example 23, 5-[3-(4-Diphenylmethylpiperazine-1-yl)-2-hydroxypropoxy]-6-methylguinoline]
- activity at 1 µg/mL (compound 1 μg/ml): 723%

Compound: Cc1ccc(OCC(O)CN2CCN(C(c3ccccc3)c3ccccc3)CC2)c2cccnc12 (stereo not shown) [Example 24, 5-[3-(4-Diphenylmethylpiperazine-1-yl)-2-hydroxypropoxy]-8-methylquinoline]
- activity at 1 µg/mL (compound 1 μg/ml): 146%
- activity at 10 µg/mL: 931%

Compound: COc1ccc(OCC(O)CN2CCN(C(c3ccccc3)c3ccccc3)CC2)c2cccnc12 (stereo not shown) [Example 25, 5-[3-(4-Diphenylmethylpiperazine-1-yl)-2-hydroxypropoxy]-8-methoxyquinoline]
- activity at 1 µg/mL (compound 1 μg/ml): 858%

Compound: O=[N+]([O-])c1ccc(OCC(O)CN2CCN(C(c3ccccc3)c3ccccc3)CC2)c2cccnc12 (stereo not shown) [Example 26, 5-[3-(4-Diphenylmethylpiperazine-1-yl)-2-hydroxypropoxy]-8-nitroquinoline]
- activity at 1 µg/mL (compound 1 μg/ml): 177%

Compound: OC(COc1ccc(Cl)c2ncccc12)CN1CCN(C(c2ccccc2)c2ccccc2)CC1 (stereo not shown) [Example 29, 5-[3-(4-Diphenylmethylpiperazine-1-yl)-2-hydroxypropoxy]-8-chloroquinoline]
- activity at 1 µg/mL (compound 1 μg/ml): 246%

Compound: CN(CC(O)CN1CCN(C(c2ccccc2)c2ccccc2)CC1)c1cccc2ncccc12 (stereo not shown) [Example 30, N-[3-(4-Diphenylmethylpiperazine-1-yl)-2-hydroxypropyl]-N-methyl-5-quinolineamine]
- activity at 1 µg/mL (compound 1 μg/ml): 597%

Compound: OC(CSc1cccc2ncccc12)CN1CCN(C(c2ccccc2)c2ccccc2)CC1 (stereo not shown) [Example 31, 5-[3-(4-Diphenylmethylpiperazine-1-yl)-2-hydroxypropylthio]quinoline]
- activity at 10 µg/mL: 799%
- 3H-vincristine accumulation (compound 1 μg/ml, 2 hours, control = 100, 120 min): 428%

Compound: c1ccc(C(c2ccccc2)N2CCN(CCCCOc3cccc4ncccc34)CC2)cc1 [Example 33, 5-[4-(4-Diphenylmethylpiperazine-1-yl)butoxy]quinoline]
- activity at 1 µg/mL (compound 1 μg/ml): 447%

Compound: CN(C(=O)CCN1CCN(C(c2ccccc2)c2ccccc2)CC1)c1cccc2ncccc12 [Example 37, 5-[N-Methyl-(3-(4-diphenylmethylpiperazine-1-yl)propionamido)]quinoline]
- activity at 1 µg/mL (compound 1 μg/ml): 549%
- activity at 10 µg/mL: 1000%

Compound: CN(C(=O)CCN1CCN(C2c3ccccc3CCc3ccccc32)CC1)c1cccc2ncccc12 [Example 38, 5-[N-methyl-(3-(4-dibenzosuberanylpiperazine-1-yl)-propionamide)]quinoline]
- activity at 1 µg/mL (compound 1 μg/ml): 378%
- activity at 10 µg/mL: 819%

Compound: CC(=O)OC(CN1CCN(C(c2ccccc2)c2ccccc2)CC1)CN(C(C)=O)c1cccc2ncccc12 (stereo not shown) [Example 39, 5-[N-Acetyl-(2-acetoxy-3-(4-diphenylmethylpiperazine-1-yl)propylamino)]quinoline]
- activity at 1 µg/mL (compound 1 μg/ml): 236%
- activity at 10 µg/mL: 908%

Compound: CC(=O)N(CC(O)CN1CCN(C(c2ccccc2)c2ccccc2)CC1)c1cccc2ncccc12 (stereo not shown) [Example 40, 5-[N-Acetyl-(3-(4-diphenylmethylpiperazine-1-yl)-2-hydroxypropylamino)]quinoline]
- activity at 1 µg/mL (compound 1 μg/ml): 259%

Compound: OC(COc1cccc2cnccc12)CN1CCN(C(c2ccccc2)c2ccccc2)CC1 (stereo not shown) [Example 43, 5-[3-(4-Diphenylmethylpiperazine-1-yl)-2-hydroxypropoxy]isoquinoline]
- activity at 1 µg/mL (compound 1 μg/ml): 531%

Compound: OC(COc1cccc2cnccc12)CN1CCCN(C(c2ccccc2)c2ccccc2)CC1 (stereo not shown) [Example 45, 5-[3-(4-Diphenylmethylhomopiperazine-1-yl)-2-hydroxypropoxy]isoquinoline]
- activity at 1 µg/mL (compound 1 μg/ml): 307%
- activity at 10 µg/mL: 982%

Compound: OC(COc1ccnc2ccccc12)CN1CCN(C(c2ccccc2)c2ccccc2)CC1 (stereo not shown) [Example 46, 4-[3-(4-Diphenylmethylpiperazine-1-yl)-2-hydroxypropoxy]quinoline]
- activity at 1 µg/mL (compound 1 μg/ml): 142%
- activity at 10 µg/mL: 987%

Compound: OC(COc1cccc2ccncc12)CN1CCN(C(c2ccccc2)c2ccccc2)CC1 (stereo not shown) [Example 47, 8-[3-(4-Diphenylmethylpiperazine-1-yl)-2-hydroxypropoxy]isoquinoline]
- activity at 1 µg/mL (compound 1 μg/ml): 322%
- activity at 10 µg/mL: 879%

Compound: OC(COc1nccc2ccccc12)CN1CCN(C(c2ccccc2)c2ccccc2)CC1 (stereo not shown) [Example 48, 1-[3-(4-Diphenylmethylpiperazine-1-yl)-2-hydroxypropoxy]isoquinoline]
- activity at 1 µg/mL (compound 1 μg/ml): 215%
- activity at 10 µg/mL: 798%

Compound: OC(COc1cccc2cccnc12)CN1CCN(C(c2ccccc2)c2ccccc2)CC1 (stereo not shown) [Example 49, 8-[3-(4-Diphenylmethylpiperazine-1-yl)-2-hydroxypropoxy]-quinoline]
- activity at 1 µg/mL (compound 1 μg/ml): 213%
- activity at 10 µg/mL: 612%

Compound: OC(COc1cccc2nccnc12)CN1CCN(C(c2ccccc2)c2ccccc2)CC1 (stereo not shown) [Example 50, 5-[3-(4-Diphenylmethylpiperazine-1-yl)-2-hydroxypropoxy]quinoxaline]
- activity at 1 µg/mL (compound 1 μg/ml): 559%
- activity at 10 µg/mL: 668%

Compound: OC(COc1cccc2ncncc12)CN1CCN(C(c2ccccc2)c2ccccc2)CC1 (stereo not shown) [Example 51, 5-[3-(4-Diphenylmethylpiperazine-1-yl)-2-hydroxypropoxy]quinazoline]
- activity at 1 µg/mL (compound 1 μg/ml): 534%
- activity at 10 µg/mL: 798%

Compound: OC(COc1cccc2ncccc12)CN1CCN(C(c2ccccc2)c2ccncc2)CC1 (stereo not shown) [Example 52, 5-(3-[4-((4-Pyridyl) -phenylmethyl)piperazine-1-yl]-2-hydroxypropoxy)quinoline]
- activity at 1 µg/mL (compound 1 μg/ml): 379%
- activity at 10 µg/mL: 910%

Compound: Cc1cc(C(F)(F)F)nc2cccc(OCC(O)CN3CCN(C4c5ccccc5CCc5ccccc54)CC3)c12 (stereo not shown) [Example 54, 2-Trifluoromethyl-4-methyl-5-[3-(4-(dibenzosuberane-5-yl)piperazine-1-yl)-2-hydroxypropoxy]quinoline]
- activity at 1 µg/mL (compound 1 μg/ml): 253%
- activity at 10 µg/mL: 777%

Compound: Cc1cc(C(F)(F)F)nc2cccc(OCC(O)CN3CCN(C(c4ccccc4)c4ccccc4)CC3)c12 (stereo not shown) [Example 56, 2-Trifluoromethyl-4-methyl-5-[3-(4-diphenylmethylpiperazine-1-yl)-2-hydroxypropoxy]quinoline]
- activity at 1 µg/mL (compound 1 μg/ml): 321%
- activity at 10 µg/mL: 735%

Compound: OC(CNCCNC1c2ccccc2CCc2ccccc21)COc1cccc2ncccc12 (stereo not shown) [Example 62, 5-[3-(N'-(Dibenzosuberane-5-yl)ethylenediamino)-2-hydroxypropoxy]quinoline]
- activity at 1 µg/mL (compound 1 μg/ml): 525%

Compound: CN(CCN(C)C1c2ccccc2CCc2ccccc21)CC(O)COc1cccc2ncccc12 (stereo not shown) [Example 63]
- activity at 1 µg/mL (compound 1 μg/ml): 773%

Compound: CSc1ccc2c(OCC(O)CN3CCN(C4c5ccccc5CCc5ccccc54)CC3)cccc2n1 (stereo not shown) [Example 64, 2-Methylthio-5-[3-(4-(dibenzosuberane-5-yl)piperazine-1-yl)-2-hydroxypropoxy]quinoline]
- activity at 1 µg/mL (compound 1 μg/ml): 425%
- activity at 10 µg/mL: 900%
